{"source": "patent US6818439B1", "about": "“Methods for administration of recombinant gene delivery vehicles for treatment of hemophilia and other disorders” (priority 1994, dated 2004)", "key": {"[1]": {"system": "liver", "assay": "Peroxisome proliferator induced liver transduction by beta galactosidase vector, XGAL staining", "format": "in vivo, Balb/C mice", "experimental": "On day 4, 200 ul beta galactosidase retroviral vector (1E9 cfu/ml, DA-Bengal) was injected via tail vein. On day 7, the mice were sacrificed, tissues were fixed in 2% formaldehyde/PBS for 24 hr, and blocked into slices of 2-5 mm. Sections were rinsed in PBS and stained in fresh XGAL solution (5 mM potassium ferricyanide/5 mM potassium ferrocyanide/2 mM MgCl2/0.5mg/ml XGAL in DMF (Gold Scientific)/1×PBS). Tissue was embedded in paraffin (−50 degrees), sectioned at 5 microns (PML, San Diego), and counterstained with Hematoxylin/Eosin."}, "[2]": {"assay": "Ganciclovir toxicity in the mouse dose study", "format": "in vivo, mice"}, "[3]": {"system": "CT26TK Neo", "assay": "Ganciclovir on in vivo tumor growth of CT26TK Neo", "set-up": "species or system mice", "details": "62.5 mg/Kg I.P. twice daily, S.C. tumor", "method": "(§1) In order to determine whether ganciclovir has an effect on the growth of unmodified CT26 tumor cells in vivo, 2 groups of 7 mice are injected S.C. with 2×10^5 unmodified CT26 cells and 2 groups of 7 mice are injected S.C. with 2×10^5 CT26TK Neo cells. Seven days after tumor implantation, one group of CT26 injected mice and one group of CT26TK Neo injected mice are placed on a twice daily (AM and PM) regimen of I.P. ganciclovir at 62.5 mg/Kg. These mice are treated for 12 days or until the CT26TK Neo injected animals have no detectable tumor burden. Tumor growth is monitored over a three week period."}, "[4]": {"system": "CT26TK Neo", "assay": "Ganciclovir dose study in mice injected with CT26TK Neo cells (tumor regression)", "format": "in vivo", "method": "In order to test whether in vivo transduction of a murine tumor could be used to treat the disease, an experiment was performed to determine the optimal concentration of ganciclovir necessary to eliminate a tumor that was transduced and selected in vitro to assure 100% transduction. Twelve groups of 3 mice each are injected with 2×10^5 CT26TK Neo cells. Six groups of mice are injected with these cells intraperitoneally (I.P.) and six groups of mice are injected subcutaneously (S.C.). Two other groups of 3 mice each are injected with 2×10^5 unmodified CT26 cells (as a control) either I.P. or S.C.\nTen days after the injection of the CT26 or CT26TK Neo cells into these groups of mice, several concentrations of ganciclovir treatment are initiated. Each dose regimen consists of 2 daily AM and PM I.P. injections of ganciclovir.\nTumor measurements were made for 23 days FIG. 11). CT26TK Neo grew only slightly slower than unmodified CT26 in the absence of ganciclovir. […] After 24 days, the I.P. injected animals were sacrificed and evaluated. The optimal concentration for anti-tumor effect was similar whether the tumor was grown I.P. or S.C."}, "[5]": {"system": "CT26", "assay": "Ganciclovir on in vivo tumor growth of unmodified CT26", "set-up": "species or system mice", "details": "62.5 mg/Kg I.P. twice daily, S.C. tumor", "method": "as §1"}, "[6]": {"system": "CT26TK Neo cells", "assay": "Effect of ganciclovir on CT26TK Neo cells (TK-3 transduced), cell counts", "details": "lowest dose 6.25 μg/ml, twice per day for four consecutive days", "experimental": "CT26 cells are transduced with G-pseudotyped TK-3 vector. Twenty-four hours after adding the viral supernatant, the CT26 cells are placed under G-418 selection (450 µg/ml). After 10 days incubation, a G-418 selected pool is obtained and designated CT26TK Neo. CM26 TK Neo cells were seeded into six 10 cm^2 plates at a density of 2.5×10^6 per plate. As controls, each of two other cell types, CT26 and CT26 beta-gal (this cell line was transduced with a retroviral vector carrying the reporter gene β-galactosidase from E. coli.), were also seeded into six 10 cm^2 plates as controls. Five plates of each cell type were treated twice per day for four consecutive days with medium containing ganciclovir concentrations of 100 μg/ml, 50 μg/ml, 25 μg/ml, 12.5 μg/ml and 6.25 μg/ml. One plate of each cell type was left untreated. Afterwards, the cells were removed from each dish using trypsin-EDTA, resuspended in DMEM with 10% FBS and counted."}, "[7]": {"system": "CT26 cells", "assay": "Effect of ganciclovir on unmodified CT26 cells, cell counts", "format": "cell-based, mouse", "description": "(§2) One plate of each cell type was left untreated."}, "[8]": {"system": "CT26 beta-gal cells", "assay": "Effect of ganciclovir on CT26 beta-gal cells, cell counts", "format": "cell-based, mouse", "description": "as §2"}, "[9]": {"system": "hepatitis B", "details": "cited from earlier work"}, "[10]": {"system": "hepatitis C", "details": "six months after termination of treatment; cited from earlier work"}, "[11]": {"system": "hepatitis D", "details": "cited from earlier work"}, "[12]": {"details": "6.25 μg/ml or 12.5 μg/ml, twice per day for four days"}}, "note": "Read-outs that look alike come from different tables or passages of the source.", "data": [{"compound": "Cc1cccc(Nc2cc(Cl)nc(SCC(=O)O)n2)c1C", "note": "[WY 14643]", "values": [{"measurement": "blue cells in liver (background staining)", "setting": "[1]; WY liver: mitogen, no vector", "result": "No blue cells"}, {"measurement": "blue cells in liver, periportally and on the periphery", "setting": "[1]; group I: IP 500 μl of 15 mg/ml once per day for 4 days plus beta galactosidase vector", "result": "Numerous blue cells"}, {"measurement": "blue cells in liver, periportally and on the periphery", "setting": "[1]; group II: gavage 200 μl of 15 mg/ml once per day for 4 days plus beta galactosidase vector", "result": "Numerous blue cells"}]}, {"compound": "Nc1nc(O)c2ncn(COC(CO)CO)c2n1", "note": "[ganciclovir]", "values": [{"measurement": "tolerability", "setting": "[2]; 15.63 mg/Kg, 31.25 mg/Kg and 62.5 mg/Kg groups, treated for an additional 7 days", "result": "able to tolerate the treatment"}, {"measurement": "toxicity observed", "setting": "[2]; 62.5 mg/Kg groups", "result": "not life threatening and reversible"}, {"measurement": "survival (toxic effects)", "setting": "[2]; 125 mg/Kg, 250 mg/Kg and 500 mg/Kg groups, 2 daily I.P. injections, after 5 days", "result": "dead due to the toxic effects"}, {"measurement": "tumor burden", "setting": "[3]", "result": "dramatic decrease in tumor burden"}, {"measurement": "tumor regression", "setting": "[4]; 15.63 mg/Kg, compared to untreated control groups", "result": "Little or no effect"}, {"measurement": "tumor regression", "setting": "[4]; 31.25 mg/Kg", "result": "Partial tumor regression"}, {"measurement": "tumor regression", "setting": "[4]; 62.5 mg/Kg regimen, 2 daily I.P. injections", "result": "Complete tumor regression"}, {"measurement": "tumor size versus untreated mice", "setting": "[5]", "result": "somewhat smaller"}, {"measurement": "cytotoxic effect on CT26 TKneo cells", "setting": "[6]", "result": "dramatic cytotoxic effect"}, {"measurement": "effect on cell growth", "setting": "[7]; [12]", "result": "did not have an effect"}, {"measurement": "effect on cell growth", "setting": "[7]; beginning at 25 ug/ml", "result": "dose-dependent decrease in cell growth"}, {"measurement": "effect on cell growth", "setting": "[8]; [12]", "result": "did not have an effect"}, {"measurement": "effect on cell growth", "setting": "[8]; beginning at 25 ug/ml", "result": "dose-dependent decrease in cell growth"}]}, {"compound": "alpha interferon", "values": [{"measurement": "patients responding to treatment", "setting": "[9]; patients infected as adults", "result": "about 35%"}, {"measurement": "patients responding to treatment", "setting": "[9]; perinatal infectees", "result": "about 10%"}, {"measurement": "responders relapsed", "setting": "[10]", "result": "half"}, {"measurement": "responders relapsed", "setting": "[11]; in vivo", "result": "85-90%"}, {"measurement": "patients responding to therapy", "setting": "[11]; pilot studies", "result": "25-60%"}]}]}
